Earlier results in US11202800B1, “Methods for treating emotional cognitive disconnect” (priority 2013, dated 2021).

Tests used:
[1] = tested on: Ca^2+ plus calmodulin dependent phosphorylation of synapsin I; conditions: in rats
[2] = tested on: Ca^2+ plus calmodulin-stimulated reactions; conditions: in rats

For `[Mg+2]` [Mg^2+, magnesium], the “Mg^2+ concentration above which Ca^2+ plus calmodulin dependent phosphorylation of synapsin I is progressively inhibited” value [1] is listed as “above 5 mM” and the “Mg^2+ concentration range in which Ca^2+ plus calmodulin-stimulated reactions are maximally active” value [2] is listed as 30 to 50 mM.
